Data set [1] addresses brevetoxin receptor (site five of voltage gated sodium channels). The class given is binding.
The subject of a further data set is sheep. Conditions: in vivo; cited from earlier work.
In another data set the target is brevenal receptor. The class given is binding.

SMILES strings stand for the structures.

As for `C=C/C=C\CC[C@H]1O[C@H]2CC[C@@]3(C)O[C@H]4[C@@H](O)C[C@@]5(C)O[C@@H](CC/C=C(C)/C(C)=C/C=O)[C@@H](C)C[C@H]5O[C@@H]4C[C@@H]3O[C@@H]2CC[C@@]1(C)O` [Compound 3, brevenal], the inhibitory constant (Ki) (as a rule, a measure of affinity in units of concentration, obtained from inhibition or displacement) was found to be 1.13 ± 0.153 µM in data set [1] and 0.137 ± 0.016 µM at brevenal receptor. Moreover, in the data set with sheep, the “bronchoconstriction (effect on RL)” value is reported as “no effects observed”.

In the case of `C=C(C=O)C[C@@H]1C[C@H](O)[C@]2(C)O[C@@H]3C[C@@H]4O[C@@H]5C[C@]6(C)O[C@]7(C)CC[C@@H]8O[C@@H]9C[C@]%10(C)O[C@@H]%11C(C)=CC(=O)O[C@H]%11C[C@H]%10O[C@H]9C[C@@H](C)[C@H]8O[C@H]7C[C@H]6O[C@H]5C/C=C\[C@H]4O[C@H]3C[C@H]2O1` [brevetoxin, PbTx-2], the “increase in RL (pulmonary resistance)” value in the data set with sheep is 221% ± 21%.

These data come from paper PMC4012454 (Marine Drugs, 2014).
